Source: US5420289A, “Substituted indole-, indene-, pyranoindole- and tetrahydrocarbazole-alkanoic acid derivatives as inhibitors of PLA2 and lipoxygenase” (American Home Products Corporation, priority 1993, dated 1995)

Legend:
human platelet PLA2 = molecular target: T1, human platelet PLA2 (Homo sapiens, UniProt P14555); assay: in vitro isolated phospholipase A2 assay, human platelet PLA2 (Example 74); format: biochemical; design: dose or concentration left out as unconfirmed; conditions: read-out: % Inhibition, HP (human platelet)
T1 construct: Semi-purified human platelet acid extract PLA2; from tissue; host or cells: human platelets (semi-purified acid extract)
T1 sequence (P14555 21-144): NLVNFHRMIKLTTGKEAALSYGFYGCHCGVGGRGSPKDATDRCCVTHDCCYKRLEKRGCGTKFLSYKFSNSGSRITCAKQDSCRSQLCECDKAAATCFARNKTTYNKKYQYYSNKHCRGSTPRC
Protocol: (§1) The compounds of the invention are tested in an in vitro isolated phospholipase A2 assay to determine the ability of the test compounds to inhibit the release of arachidonic acid from an arachidonic acid-containing substrate by the action of phospholipase A2 enzyme from human and non-human sources.
(§2) This assay is carried out as follows:
(§3) Into a 15 mL polypropylene tube are added the following:
(§4) ^6 Two human PLA2 enzymes are used:
a) Semi-purified human platelet acid extract PLA2 (in 10 mM
sodium acetate buffer, pH 4.5). Remove protein precipitate by
centrifugation at about 2200 rpm for 10 minutes.
(§5) Incubate the 100mL reaction mixture for 10 minutes at 37° C. in a shaking water bath. The reaction is terminated by the addition of 2 mL tetrahydrofuran, followed by vortexlag. NH2 columns (100 mg/mL--Analytichem International) are conditioned with 0.5 mL tetrahydrofuran followed by 0.5 mL tetrahydrofuran/water (2 mL:0.1 mL, v/v).
(§6) The sample is loaded onto the columns and slowly drawn through them. The hydrolyzed arachidonic acid retained in the columns is eluted therefrom with 1 mL tetrahydrofuran/glacial acetic acid (2%). The arachidonic acid is transferred to scintillation vials and quantitated by b-counting analysis. A "total counts" sample is prepared by pipetting […] ^3 H-arachidonate E. coli directly into a scintillation vial to which is added 1 mL tetrahydrofuran. 10 mL aquasol (scintillation cocktail) is added to all samples. [formula]

[1] = molecular target: T2, human synovial fluid PLA2 (Homo sapiens, UniProt P14555); assay: in vitro isolated phospholipase A2 assay, human synovial fluid PLA2 (Example 74); format: biochemical; design: inhibition / % Inhibition, HSF (human synovial fluid): dose or concentration left out as unconfirmed; conditions: read-out: % Inhibition, HSF (human synovial fluid)
T2 sequence (P14555 21-144): T1 sequence (P14555 21-144)
Protocol: as §1, §2, §3, §4
b) Purified human synovial fluid.
as §5, §6

[2] = tested on: 5-lipoxygenase in human whole blood; assay: inhibition of 5-lipoxygenase in human whole blood (Example 79); format: cell-based; conditions: for % Inhibition of LTB4: 25 μM; for IC50: human whole blood, read-out: IC50 (inhibition of LTB4)
Protocol: The assay of this Example measures the ability of the compounds tested to inhibit 5-lipoxygenase in human whole blood.
as §2
Blood is obtained in 50-100 ml quantities from male donors. White blood cell counts and differentials are made. Two ml of blood are placed in a 15 ml polypropylene test tube. Compounds are solubilized in dimethylsulfoxide and diluted 1:10 in 10% bovine serum albumin in phosphate buffered saline, pH 7.4 resulting in a final dimethylsulfoxide concentration of 0.1% in the blood. Then, compounds are added to the blood in a shaking water bath at 37° C. for 10 minutes prior to the addition of […] calcium ionophore (A23187; Sigma). After ionophore administration, whole blood samples are mixed and incubated for 20 minutes at 37° C. in a shaking water bath. Incubation is terminated by placing samples in an ice bath and immediately adding ethylene glycol-bis-(b-aminoethyl ether)-N,N,N',N'-tetraacetic acid (10 mM). Samples are mixed and centrifuged at 1200 × g for 15 minutes at 4° C. Preparation of samples for evaluation by RIA or ELISA is carried out by the following protocol. Plasma is removed from sample tubes, placed in 15 ml polypropylene test tubes containing 8 ml methanol, and then vortexed to precipitate protein. Samples are stored at -70° C. overnight. The next day, samples are centrifuged at 200 × g for 15 minutes at 4° C. to pellet the precipitate. Samples are dried in a Savant speed vac concentrator, reconstituted to original volume with ice cold RIA or ELISA buffer, and stored at -70° C. until assayed. The assay for eicosanoids (LTB4, T×B2, and PGE2) is performed as described by the manufacturer of the [^3 H]-RIA kit or ELISA kit (LTB4 -Amersham, TxB2 and PGE2 - Caymen Chemical).
The total eicosanoid level in 2 ml of blood is calculated and reported as ng/10^6 neutrophils. […] Drug effects are expressed as percent change from control values.
Compounds tested in vitro are solubilized in dimethylsulfoxide and diluted 1:10 in 10% bovine serum albumin in phosphate buffer saline resulting in a final dimethylsulfoxide concentration of 0.1% i n the blood.

SMILES	inhibition (human platelet PLA2) [%]	inhibition [1] [%]	% Inhibition of LTB4 [2] [%]	IC50 [2] [µM]
Cc1c(CC(=O)NO)c2cc(OCc3nc4ccccc4s3)ccc2n1Cc1ccc(Cl)cc1 [Example 46, 5-(2-Benzothiazolylmethoxy)-1-[(4-chlorophenyl)methyl]-N-hydroxyl-2-methyl-1H-indole-3-acetamide]	13	48	30	14.9
CONC(=O)Cc1c(C)n(Cc2ccc(Cl)cc2)c2ccc(OCc3nc4ccccc4s3)cc12 [Example 47, 5-(2-Benzothiazolylmethoxy)-1-[(4-chlorophenyl)methyl]-N-methoxy-2-methyl-1H-indole-3-acetamide hemihydrate.]	5	2	31	
Cc1c(CC(=O)N(C)O)c2cc(OCc3nc4ccccc4s3)ccc2n1Cc1ccc(Cl)cc1 [Example 49, 5-(2-Benzothiazolylmethoxy)-1-[(4-chlorophenyl)methyl]N-hydroxyl-N,2-dimethyl-1H -indole-3-acetamide]	6	4	61	12.3
Cc1c(CC(=O)O)c2cc(OCc3nc4ccccc4s3)ccc2n1Cc1ccccc1 [Example 51, 5-(2-Benzothiazolylmethoxy)-1-(phenylmethyl)-2-methyl-1H-indole-3-acetic acid]	41	88	5	
CSc1ccc(Cn2c(C)c(CC(=O)O)c3cc(OCc4nc5ccccc5s4)ccc32)cc1 [Example 54, 5-(2-Benzothiazolylmethoxy)-1-[[4-(methylthio)phenyl]methyl]-2-methyl-1H-indole-3-acetic acid]	2	44	11	
Cc1c(CCO)c2cc(OCc3csc(-c4ccccc4)n3)ccc2n1Cc1ccccc1 [Example 55, 5-[(2-Phenyl-4-thiazolyl)methoxy]-1-(phenylmethyl)-2-methyl-1H-indole-3-ethanol]	13	4	19	
CC(=O)OCCc1c(C)n(Cc2ccccc2)c2ccc(OCc3csc(-c4ccccc4)n3)cc12 [Example 56, 5-[(2-Phenyl-4-thiazolyl)methoxy]-1-(phenylmethyl)-2-methyl-1H-indole-3-ethanol acetate ester]	2		2	
COc1cccc(Cn2c(C)c(CC(=O)O)c3cc(OCc4csc(-c5ccccc5)n4)ccc32)c1 [Example 60, 5-[(2-Phenyl-4-thiazolyl)methoxy)-1-[[(3-methoxy)phenyl]methyl]-2-methyl-1H-indole-3-acetic acid]	3	84	35	
Cc1c(CC(=O)O)c2cc(OCc3csc(-c4ccccc4)n3)ccc2n1CCCc1ccccc1 [Example 63, 5-[(2-Phenyl-4-thiazolyl)methoxy]-1-(3-phenylpropyl)-2methyl-1H-indole-3-acetic acid]	2	34		
CCOC(=O)Cc1c(C)n(Cc2csc(-c3ccc(Cl)cc3)n2)c2ccc(OCc3csc(-c4ccccc4)n3)cc12 [Example 64, 5-[(2-Phenyl-4-thiazolyl)methoxy]-1-[[2-(4-chlorophenyl)-4-thiazolyl]methyl]-2-methyl-1H-indole-3-acetic acid ethyl ester]	1	4		
Cc1c(CC(=O)O)c2cc(OCc3csc(-c4ccccc4)n3)ccc2n1Cc1csc(-c2ccc(Cl)cc2)n1 [Example 65, 5-[(2-Phenyl-4-thiazolyl)methoxy]-1-[[2-(4-chlorophenyl)-4-thiazolyl]methyl]-2-methyl-1H-indole-3-acetic acid]	85	89	22	
CCOC(=O)Cc1c(C)n(Cc2ccc3ccccc3c2)c2ccc(OCc3csc(-c4ccccc4)n3)cc12 [Example 66, 5-[(2-Phenyl-4-thiazolyl)methoxy]-1-(2-naphthalenylmethyl)-2-methyl-1H-indole-3acetic acid ethyl ester]	1	6		
CCOC(=O)Cc1c(C)n(Cc2ccc(Cl)cc2)c2ccc(OCc3csc(-c4ccc(Cl)cc4)n3)cc12 [Example 68, 5-[[2-(4-Chlorophenyl)-4-thiazolyl]methoxy]-1-[(4-chlorophenyl)methyl]-2-methyl-1H-indole-3-acetic acid ethyl ester]	2	0		
Cc1c(CC(=O)O)c2cc(OCc3csc(-c4ccc(Cl)cc4)n3)ccc2n1Cc1ccc(Cl)cc1 [Example 69, 5-[[2-(4-Chlorophenyl)-4-thiazolyl]methoxy]-1-[(4chlorophenyl)methyl]-2-methyl-1H-indole-3-acetic acid]	8	54		
Cc1c(CC(=O)O)c2cc(OCc3coc(-c4ccccc4)n3)ccc2n1Cc1ccccc1 [Example 71, 5-[(2-Phenyl-4-oxazolyl)methoxy]-1-(phenylmethyl)-2-methyl-1H-indole-3-acetic acid hemihydrate.]	44	91		
